The structures appear in SMILES notation.

Holding throughout (assay type): in vivo
Assay [1] relates to Monochoria vaginalis. Kind of assay: Test Example 12: herbicidal effect test by treatment during growing period in paddy field. The conditions noted are these: 120 g/10a; treatment seven days after sowing in flooded paddy pot; assessed 14 days after treatment. In short, it runs like this:
(§1)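 Read-out: weed suppression (%) = (1 − treated/untreated mean dry weight) × 100, scored 14 days after treatment with two replications. Pots held puddled paddy soil, 30 seeds per species sown 0–1 cm, flooded ~3 cm. Post-emergence dropwise water application at 7 days after sowing, 120 g a.i./10 are.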

The test system of assay [2] is Scirpus juncoides. Described as above. The conditions noted are these: 120 g/10a; treatment seven days after sowing in flooded paddy pot; assessed 14 days after treatment. In short, it runs like this:
as §1

Assay [3] relates to Lindernia pyxidaria. The assay is described as above. The conditions noted are these: 120 g/10a; treatment seven days after sowing in flooded paddy pot; assessed 14 days after treatment. In short, it runs like this: as §1
Assay [4] concerns Echinochloa crus-galli. The assay is described as above. The conditions noted are these: 120 g/10a; treatment seven days after sowing in flooded paddy pot; assessed 14 days after treatment. In short, it runs like this: as §1
Assay [5] relates to Monochoria vaginalis. Kind of assay: Test Example 11: herbicidal effect test by soil treatment in paddy field. The conditions noted are these: 120 g/10a active ingredient, 14 days after treatment. In short, it runs like this:
(§2)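 Puddled paddy soil with N:P:K 17:17:17 fertilizer in Wagner pots; 30 seeds per species sown at 0–1 cm, flooded to about 3 cm, kept in a glass greenhouse. Water-diluted emulsifiable concentrate dripped in immediately after sowing at 120 g a.i. per 10 are. Suppression from dry weight versus untreated at 14 days.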

The subject of assay [6] is Scirpus juncoides. Described as above. The note with it: 120 g/10a active ingredient, 14 days after treatment. In short, it runs like this:
as §2

In assay [7] the test system is Lindernia pyxidaria. Described as above. The note with it: 120 g/10a active ingredient, 14 days after treatment. In short, it runs like this: as §2
In assay [8] the test system is Echinochloa crus-galli. Described as above. The conditions noted are these: 120 g/10a active ingredient, 14 days after treatment. In short, it runs like this:
as §2

For the compound `Cc1ccc(N(C(=O)n2cnn(S(=O)(=O)c3ccccc3Cl)c2=O)C(C)C)c(F)c1` [Compound 11-526], the “Weed suppression rate (%) Monochoria vaginalis” value in the assay with Monochoria vaginalis [1] and with Monochoria vaginalis [5] was 80% in each case. For the same compound, the “Weed suppression rate (%) Scirpus juncoides” value in the assay with Scirpus juncoides [2] and in the assay on Scirpus juncoides [6] was 90% in each case. In addition, the “Weed suppression rate (%) Lindemia pyxidaria” value in the assay on Lindernia pyxidaria [3] and with Lindernia pyxidaria [7] was 80% in each case. The “Weed suppression rate (%) Echinochloa crus-galli” value with Echinochloa crus-galli [4] and in the assay on Echinochloa crus-galli [8] was 90% throughout.

For the compound `CC(C)N(C(=O)n1cnn(S(=O)(=O)c2ccccc2Cl)c1=O)c1ccc(Cl)cn1` [Compound 11-536], the “Weed suppression rate (%) Monochoria vaginalis” value in the assay with Monochoria vaginalis [1] and in the assay on Monochoria vaginalis [5] was 60% each time. In addition, the “Weed suppression rate (%) Scirpus juncoides” value is recorded as 90% in the assay on Scirpus juncoides [2] and 60% in the assay with Scirpus juncoides [6]. For the same compound, the entries for the “Weed suppression rate (%) Lindemia pyxidaria” value in the assay with Lindernia pyxidaria [3] and in the assay on Lindernia pyxidaria [7] were 80% and 90%, respectively. Besides, the “Weed suppression rate (%) Echinochloa crus-galli” value with Echinochloa crus-galli [4] and in the assay with Echinochloa crus-galli [8] was 90% in each case.

As for `CC(C)N(C(=O)n1cnn(S(=O)(=O)c2cccc(Cl)c2)c1=O)c1ccc(F)c(F)c1F` [Compound 11-553], the “Weed suppression rate (%) Monochoria vaginalis” value came to 60% in the assay on Monochoria vaginalis [1] and 70% with Monochoria vaginalis [5]. The “Weed suppression rate (%) Scirpus juncoides” value with Scirpus juncoides [2] and in the assay with Scirpus juncoides [6] was 30% throughout. Moreover, the figures for the “Weed suppression rate (%) Lindemia pyxidaria” value in the assay on Lindernia pyxidaria [3] and in the assay with Lindernia pyxidaria [7] were 70% and 90%, respectively. Besides, the “Weed suppression rate (%) Echinochloa crus-galli” value in the assay with Echinochloa crus-galli [4] and with Echinochloa crus-galli [8] was 100% throughout.

In the case of `CC(C)N(C(=O)n1cnn(S(=O)(=O)c2cccc(Cl)c2)c1=O)c1c(F)cc(F)cc1F` [Compound 11-554], the entries for the “Weed suppression rate (%) Monochoria vaginalis” value in the assay with Monochoria vaginalis [1] and in the assay on Monochoria vaginalis [5] were 80% and 70%, respectively. Besides, the “Weed suppression rate (%) Scirpus juncoides” value in the assay on Scirpus juncoides [2] was found to be 90%; in the assay on Scirpus juncoides [6] it was 70%. Further, the “Weed suppression rate (%) Lindemia pyxidaria” value in the assay on Lindernia pyxidaria [3] was found to be 80%; in the assay with Lindernia pyxidaria [7] it was 90%. The “Weed suppression rate (%) Echinochloa crus-galli” value is recorded as 80% in the assay on Echinochloa crus-galli [4] and 100% in the assay on Echinochloa crus-galli [8].

In the case of `Cc1cc(F)ccc1N(C(=O)n1cnn(S(=O)(=O)c2cccc(Cl)c2)c1=O)C(C)C` [Compound 11-563], the “Weed suppression rate (%) Monochoria vaginalis” value is listed as 80% with Monochoria vaginalis [1] and 90% in the assay with Monochoria vaginalis [5]. In addition, the “Weed suppression rate (%) Scirpus juncoides” value with Scirpus juncoides [2] and in the assay on Scirpus juncoides [6] was 100% throughout. In addition, the “Weed suppression rate (%) Lindemia pyxidaria” value was 80% with Lindernia pyxidaria [3] and 100% with Lindernia pyxidaria [7]. The “Weed suppression rate (%) Echinochloa crus-galli” value in the assay with Echinochloa crus-galli [4] and in the assay on Echinochloa crus-galli [8] was 100% throughout.

Regarding `CC(C)N(C(=O)n1cnn(S(=O)(=O)c2ccc(Cl)cc2)c1=O)c1cccc(F)c1F` [Compound 11-587], the “Weed suppression rate (%) Monochoria vaginalis” value in the assay on Monochoria vaginalis [1] was found to be 90%; in the assay on Monochoria vaginalis [5], 60%. Besides, the entries for the “Weed suppression rate (%) Scirpus juncoides” value in the assay with Scirpus juncoides [2] and in the assay with Scirpus juncoides [6] were 90% and 60%, respectively. Moreover, the “Weed suppression rate (%) Lindemia pyxidaria” value in the assay with Lindernia pyxidaria [3] and in the assay on Lindernia pyxidaria [7] was 80% in each case. Also, the “Weed suppression rate (%) Echinochloa crus-galli” value in the assay with Echinochloa crus-galli [4] and in the assay on Echinochloa crus-galli [8] was 90% in each case.

As to `CC(C)N(C(=O)n1cnn(S(=O)(=O)c2ccc(Cl)cc2)c1=O)c1ccc(F)c(F)c1F` [Compound 11-591], the “Weed suppression rate (%) Monochoria vaginalis” value in the assay with Monochoria vaginalis [1] and with Monochoria vaginalis [5] was 70% in each case. Further, the “Weed suppression rate (%) Scirpus juncoides” value in the assay on Scirpus juncoides [2] amounted to 100%; with Scirpus juncoides [6], 60%. Moreover, the “Weed suppression rate (%) Lindemia pyxidaria” value came out at 70% in the assay on Lindernia pyxidaria [3] and 90% in the assay with Lindernia pyxidaria [7]. Also, the “Weed suppression rate (%) Echinochloa crus-galli” value is 60% in the assay with Echinochloa crus-galli [4] and 100% in the assay with Echinochloa crus-galli [8].

Take `CC(C)N(C(=O)n1cnn(S(=O)(=O)c2ccc(Cl)cc2)c1=O)c1c(F)cc(F)cc1F` [Compound 11-592]: the “Weed suppression rate (%) Monochoria vaginalis” value came to 100% with Monochoria vaginalis [1] and 90% in the assay with Monochoria vaginalis [5]. In addition, the “Weed suppression rate (%) Scirpus juncoides” value with Scirpus juncoides [2] and in the assay on Scirpus juncoides [6] was 80% each time. The “Weed suppression rate (%) Lindemia pyxidaria” value is given as 80% in the assay with Lindernia pyxidaria [3] and 100% with Lindernia pyxidaria [7]. In addition, the “Weed suppression rate (%) Echinochloa crus-galli” value with Echinochloa crus-galli [4] and in the assay on Echinochloa crus-galli [8] was 100% each time.

For the compound `Cc1cc(F)ccc1N(C(=O)n1cnn(S(=O)(=O)c2ccc(Cl)cc2)c1=O)C(C)C` [Compound 11-601], the “Weed suppression rate (%) Monochoria vaginalis” value with Monochoria vaginalis [1] came out at 70%; with Monochoria vaginalis [5], 80%. Besides, the “Weed suppression rate (%) Scirpus juncoides” value in the assay with Scirpus juncoides [2] and in the assay with Scirpus juncoides [6] was 60% in each case. The results for the “Weed suppression rate (%) Lindemia pyxidaria” value in the assay on Lindernia pyxidaria [3] and in the assay on Lindernia pyxidaria [7] were 70% and 80%, respectively. For the same compound, the figures for the “Weed suppression rate (%) Echinochloa crus-galli” value with Echinochloa crus-galli [4] and with Echinochloa crus-galli [8] were 60% and 70%, respectively.

As for `CC(C)N(C(=O)n1cnn(S(=O)(=O)c2ccc(Cl)cc2)c1=O)c1ccc(Cl)cn1` [Compound 11-612], the “Weed suppression rate (%) Monochoria vaginalis” value in the assay on Monochoria vaginalis [1] and with Monochoria vaginalis [5] was 70% each time. Further, the “Weed suppression rate (%) Scirpus juncoides” value in the assay on Scirpus juncoides [2] came out at 90%; with Scirpus juncoides [6], 70%. In addition, the “Weed suppression rate (%) Lindemia pyxidaria” value in the assay with Lindernia pyxidaria [3] is given as 90%; in the assay with Lindernia pyxidaria [7], 100%. For the same compound, the “Weed suppression rate (%) Echinochloa crus-galli” value in the assay with Echinochloa crus-galli [4] is 80%; in the assay with Echinochloa crus-galli [8] it was 100%.

In the case of `Cc1ccc(S(=O)(=O)n2ncn(C(=O)N(c3ccccc3F)C(C)C)c2=O)cc1` [Compound 11-627], the “Weed suppression rate (%) Monochoria vaginalis” value with Monochoria vaginalis [1] and in the assay on Monochoria vaginalis [5] was 80% throughout. In addition, the “Weed suppression rate (%) Scirpus juncoides” value in the assay on Scirpus juncoides [2] and with Scirpus juncoides [6] was 90% in each case. For the same compound, the “Weed suppression rate (%) Lindemia pyxidaria” value with Lindernia pyxidaria [3] and in the assay with Lindernia pyxidaria [7] was 80% in each case. In addition, the “Weed suppression rate (%) Echinochloa crus-galli” value in the assay with Echinochloa crus-galli [4] and with Echinochloa crus-galli [8] was 90% each time.

Take `Cc1ccc(S(=O)(=O)n2ncn(C(=O)N(c3cccc(F)c3)C(C)C)c2=O)cc1` [Compound 11-628]: the “Weed suppression rate (%) Monochoria vaginalis” value in the assay with Monochoria vaginalis [1] and in the assay on Monochoria vaginalis [5] was 80% each time. Moreover, the “Weed suppression rate (%) Scirpus juncoides” value with Scirpus juncoides [2] and in the assay with Scirpus juncoides [6] was 90% throughout. Moreover, the “Weed suppression rate (%) Lindemia pyxidaria” value in the assay on Lindernia pyxidaria [3] and with Lindernia pyxidaria [7] was 80% in each case. For the same compound, the “Weed suppression rate (%) Echinochloa crus-galli” value in the assay with Echinochloa crus-galli [4] and in the assay on Echinochloa crus-galli [8] was 90% throughout.

For the compound `Cc1ccc(S(=O)(=O)n2ncn(C(=O)N(c3cccc(F)c3F)C(C)C)c2=O)cc1` [Compound 11-636], the “Weed suppression rate (%) Monochoria vaginalis” value in the assay on Monochoria vaginalis [1] and in the assay on Monochoria vaginalis [5] was 100% throughout. For the same compound, the “Weed suppression rate (%) Scirpus juncoides” value in the assay with Scirpus juncoides [2] is on record as 100%; in the assay with Scirpus juncoides [6], 90%. In addition, the “Weed suppression rate (%) Lindemia pyxidaria” value is recorded as 80% in the assay with Lindernia pyxidaria [3] and 100% with Lindernia pyxidaria [7]. Further, the “Weed suppression rate (%) Echinochloa crus-galli” value in the assay on Echinochloa crus-galli [4] and with Echinochloa crus-galli [8] was 100% each time.

For the compound `Cc1ccc(S(=O)(=O)n2ncn(C(=O)N(c3c(F)cccc3F)C(C)C)c2=O)cc1` [Compound 11-639], the “Weed suppression rate (%) Monochoria vaginalis” value in the assay with Monochoria vaginalis [1] and in the assay on Monochoria vaginalis [5] was 70% each time. For the same compound, the entries for the “Weed suppression rate (%) Scirpus juncoides” value in the assay on Scirpus juncoides [2] and in the assay on Scirpus juncoides [6] were 70% and 100%, respectively. In addition, the results for the “Weed suppression rate (%) Lindemia pyxidaria” value in the assay on Lindernia pyxidaria [3] and with Lindernia pyxidaria [7] were 70% and 100%, respectively. Also, the “Weed suppression rate (%) Echinochloa crus-galli” value with Echinochloa crus-galli [4] and in the assay on Echinochloa crus-galli [8] was 100% in each case.

In the case of `Cc1ccc(S(=O)(=O)n2ncn(C(=O)N(c3ccc(F)c(F)c3F)C(C)C)c2=O)cc1` [Compound 11-640], the “Weed suppression rate (%) Monochoria vaginalis” value amounted to 100% in the assay on Monochoria vaginalis [1] and 70% in the assay with Monochoria vaginalis [5]. Moreover, the “Weed suppression rate (%) Scirpus juncoides” value in the assay with Scirpus juncoides [2] and in the assay with Scirpus juncoides [6] was 90% each time. Also, the “Weed suppression rate (%) Lindemia pyxidaria” value with Lindernia pyxidaria [3] is 70%; in the assay with Lindernia pyxidaria [7] it was 100%. The “Weed suppression rate (%) Echinochloa crus-galli” value in the assay on Echinochloa crus-galli [4] is 80%; in the assay with Echinochloa crus-galli [8] it was 100%.

As for `Cc1ccc(S(=O)(=O)n2ncn(C(=O)N(c3c(F)c(F)cc(F)c3F)C(C)C)c2=O)cc1` [Compound 11-642], the entries for the “Weed suppression rate (%) Monochoria vaginalis” value in the assay with Monochoria vaginalis [1] and in the assay on Monochoria vaginalis [5] were 90% and 70%, respectively. Besides, the “Weed suppression rate (%) Scirpus juncoides” value in the assay with Scirpus juncoides [2] worked out at 100%; with Scirpus juncoides [6], 70%. Besides, the “Weed suppression rate (%) Lindemia pyxidaria” value stood at 70% in the assay on Lindernia pyxidaria [3] and 80% with Lindernia pyxidaria [7]. In addition, the “Weed suppression rate (%) Echinochloa crus-galli” value in the assay on Echinochloa crus-galli [4] and with Echinochloa crus-galli [8] was 100% in each case.

(Values after US11076595B2, “1-(n,n-disubstituted carbamoyl) 4-(substituted sulfonyl)triazolin-5-one derivative, 4-(n,n-disubstituted carbamoyl) 1-(substituted sulfonyl)triazolin-5-one derivative, and herbicide containing said derivative as active ingredient” (HOKKO CHEMICAL INDUSTRY CO., LTD., priority 2017, dated 2021).)
